Measurements taken from paper PMC5750238 (2018).

Tested on: S6-M19-SAM sensor (RNA, riboswitch) GGGAGAUAGAGCAUCCGAUAACUUCGGUUAUUGGAUGGAUCAGACUCCUUCGGGAGUUUGAUCGGGCCUGAAGCCUCCACGGGCCCCUCUGUCUCCCACAGCUUGGACGAGCUGAAGGAGGCACGGCUCCCCAUCAAGGACGGGUCCAAUGGUCCGCUUCGGCGGAUCAUUGUUGAGUAGAGUGUGAGGAUGGGCCGGGGGAACUUCGGUUCCCGAAAGGACCGGUCGAAGGGACGGUGCGGAGAGGAGAGACUGGGAUGCCUUGUAACCGGGUCUAAGUUGU
Assay: FRET dose-response (Spinach/DFHBI-1T to Mango/YO3-biotin)
Conditions: 125 mM KCl, 1 mM MgCl2; assembly buffer; 50 nM RNA, 1 µM DFHBI-1T, 1.7 µM YO3-biotin; SAM 1 µM to 2.5 mM; apparent

EC50: 17 µM
Compound: C[S+](CC[C@H](N)C(=O)O)C[C@H]1O[C@@H](n2cnc3c(N)ncnc32)[C@H](O)[C@@H]1O (stereo partly shown)
